The test system of the assay is ob/ob mice. In words: Plasma corticosterone in ob/ob mice after 7-day osmotic minipump treatment. Format: in vivo, mouse. The following applies: C57BL/6J ob/ob mice, 86.4 μg/day by osmotic minipump for 7 days. On the procedure: A study was performed in 4-6 weeks old C57BL/6J mice homozygous (ob/ob) for the obese gene mutation to assess the effect of [deamino-Pen^1, o-Me-Tyr^2, Arg^8]-AVP (Sigma) a non-selective peptide V1b receptor antagonist on corticosterone concentration. Osmotic minipumps (Alzet Model 1007D, 0.5 μl/h for 7 days) were filled either with the peptide (to deliver 86.4 μg/day for 7 days) or vehicle and primed at least for 4 h at 37° C. before their implantation. A group of mice heterozygous (+/?) for the obese gene mutation was also implanted with osmotic minipumps filled with vehicle alone. After 7 days of treatment blood was collected into EDTA tubes and separated plasma assayed for corticosterone concentration measurement, by using a commercial rat ^125I-corticosterone (Amersham, U.K.).

The results in this text go back to patent US6380155B1, “Use of vasopressin receptor antagonist for regulation of ACTH release” (SmithKline Beecham plc., priority 1996, dated 2002).

The substance “[deamino-Pen^1, o-Me-Tyr^2, Arg^8]-AVP [AVP antagonist]” had a Plasma corticosterone concentration (n=7 per group, vehicle 228.9±63 ng/ml) of 109.9 ± 19.4 ng/mL. In addition, for the setting “versus vehicle and lean group”, the “Plasma corticosterone concentration (effect in words)” value was “reduced”.
